# Measurements from patent US6013659A, “Methods of reducing tumor colony number using novel benzothiazole compounds” (University of Pittsburgh, priority 1998, dated 2000).
# Like-named read-outs stand apart in the source and are kept apart here.
# Key:
# [1] = test system: B16 melanoma pulmonary metastases; assay: Early B16 pulmonary metastasis model (Day 4 B16 Model), A-NK cell adoptive immunotherapy; type: in vivo, C57BL/6 mice; conditions: for significance of reduction in tumor burden (in words): compound B experiments (Table 2), three experiments; for effect on reduction of B16 melanoma pulmonary metastases mediated by A-NK cell adoptive immunotherapy: A-NK cells administered on day 4; for effect on anti-metastatic therapeutic effect of adoptively transferred A-NK cells: conclusion from the two examples
# Description: The B16 F1 melanoma model system, herein after referred to as B16 melanoma model system, is recognized as being highly resistant to treatment with many standard clinically used anti-cancer agents. Therefore, it was selected for testing because it is known to be reflective of the clinical situation for advanced melanoma.
# A-NK cells were prepared from mouse spleens. All procedures were carried out in a laminar flow hood using sterile reagents and equipment. Briefly, a single cell suspension was prepared by gently mashing the spleens through a 40 mesh stainless steel screen into complete media (CM) which consisted of RPMI 1640 supplemented with 10% heat-inactivated fetal bovine serum, 100 U/ml penicillin, 100 μg/ml streptomycin sulfate, 50 μg/ml gentamicin sulfate, 2 mM L-glutamine, 5×10^-5 M 2-mercaptoethanol and 1% MEM non-essential amino acids. The erythrocytes in the resulting suspension were lysed and the suspension was centrifuged and washed twice with CM. Splencytes were cultured in T-150 flasks at 1.5×10^8 per cells per flask (A flasks) in 50 ml of CM containing 6000 IU rhIL-2/ml. […] On day 6 the A-NK cells were harvested.
# Referring to FIG. 1 which illustrated a flow diagram of procedures for tumor metastasis system, A-NK generation, therapy and analysis for arly B16 tumors used in the present invention. All experimental groups initially contained at least 7 animals. A-NK cell generation was started at day -2 and the culture was expanded on days 0 and 1 as described above.
# Separately on day 0, B16 tumor cells (2×10^5 i.v.) were injected into C57BL/6 mice. On days 0, 1, 2, 3 and 4, a benzothiazole compound of formula I (100 mg/kg, p.o.) was administered to the mice. On day 3 some animals received cyclophosphamide (300 mg/kg., i.p.) which is a standard chemotherapeutic drug.
# Control mice received injections of vehicle diluent (1% gum arabic). […] On day 10, the mice were sacrificed, their lungs removed and the rumor colonies counted.
# [2] = Subacute toxicity study in mice; type: in vivo; conditions: 0-300 mg/kg p.o. for 5 consecutive days, in 1% gum arabic
# Description: (§1) The compound B of the present invention has been tested for its pharmacokinetics and toxicity in mice. As shown in FIG. 3 peak levels of compound B occurred in the liver 1 h after p.o. administration of a single 100 mg/kg dose. […] Mice were dosed for 5 consecutive days with 0-300 mg/kg of compound B in 1% gum arabic (p.o.). Their weight was measured in 1 week intervals and at 4 weeks the animals were sacrificed and their organ weights measured.
# [3] = in vivo; set-up: species or system mice; conditions: mouse, po, 100 mg/kg
# Description: as §1
# [4] = test system: B16 melanoma pulmonary metastases; conditions: 216 h
# Description: A-NK cells were prepared from mouse spleens. All procedures were carried out in a laminar flow hood using sterile reagents and equipment. Briefly, a single cell suspension was prepared by gently mashing the spleens through a 40 mesh stainless steel screen into complete media (CM) which consisted of RPMI 1640 supplemented with 10% heat-inactivated fetal bovine serum, 100 U/ml penicillin, 100 μg/ml streptomycin sulfate, 50 μg/ml gentamicin sulfate, 2 mM L-glutamine, 5×10^-5 M 2-mercaptoethanol and 1% MEM non-essential amino acids. The erythrocytes in the resulting suspension were lysed and the suspension was centrifuged and washed twice with CM. Splencytes were cultured in T-150 flasks at 1.5×10^8 per cells per flask (A flasks) in 50 ml of CM containing 6000 IU rhIL-2/ml. After 2 days the media and the non-adherent cells from the A flasks were transferred into new T-150 flasks (25 ml per flask--B flasks) and fresh CM+IL-2 (25 ml) was placed in the A flasks. The next day (day 3) the non-adherent cells and media from the B flasks were transferred to an equal number of T-150 C flasks and fresh CM+IL-2 was placed on the B flasks. […]
# On day 8, 3-4×10^7 A-NK cells plus 120,000 IU of IL-2 were adaptively transferred into tumor-bearing mice. […] On day 9, the mice were sacrificed, their lungs removed and the tumor colonies counted.
Structure (SMILES),"Number of Pulmonary Metastases (± standard deviation) ([1]; Table 1, experiment 1, given without compound A)","Number of Pulmonary Metastases (± standard deviation) ([1]; Table 1, experiment 2, given without compound A)","Number of Pulmonary Metastases (± standard deviation) ([1]; Table 1, experiment 3, given without compound A, cyclophosphamide *p < 0.05 vs. control)","Number of Pulmonary Metastases (± standard deviation) ([1]; Table 2, experiment 1, given without compound B)","Number of Pulmonary Metastases (± standard deviation) ([1]; Table 2, experiment 2, given without compound B)","Number of Pulmonary Metastases (± standard deviation) ([1]; Table 2, experiment 3, given without compound B)",significance of reduction in tumor burden (in words) [1],organ weight change ([2]; at 4 weeks),body weight change ([2]; weekly weights to 4 weeks),effect on reduction of B16 melanoma pulmonary metastases mediated by A-NK cell adoptive immunotherapy [1],"Number of Pulmonary Metastases (± standard deviation) ([1]; Table 2, experiment 1, Compound B + A-NK Cells (with IL-2), 100 mg/kg p.o. days 0-4, control 125 ± 66, *p < 0.05 vs. control)","Number of Pulmonary Metastases (± standard deviation) ([1]; Table 2, experiment 2, Compound B + A-NK Cells (with IL-2), 100 mg/kg p.o. days 0-4, control 187 ± 114, *p < 0.05 vs. control)","Number of Pulmonary Metastases (± standard deviation) ([1]; Table 2, experiment 3, Compound B + A-NK Cells (with IL-2), 100 mg/kg p.o. days 0-4, control 199 ± 45, **p < 0.001 vs. control)",effect on anti-metastatic therapeutic effect of adoptively transferred A-NK cells [1],Tmax [3] [h],reduction of tumor burden (average) [4] [%],"reduction of tumor burden (average) ([1]; A-NK cells on day 4, compound A in combination with A-NK cells) [%]","Number of Pulmonary Metastases (± standard deviation) ([1]; Table 1, experiment 1, Compound A + A-NK Cells (with IL-2), 100 mg/kg p.o. days 0-4, control 59 ± 41, *p < 0.05 vs. control)","Number of Pulmonary Metastases (± standard deviation) ([1]; Table 1, experiment 2, Compound A + A-NK Cells (with IL-2), 100 mg/kg p.o. days 0-4, control 32 ± 22, *p < 0.05 vs. control)","Number of Pulmonary Metastases (± standard deviation) ([1]; Table 1, experiment 3, Compound A + A-NK Cells (with IL-2), 100 mg/kg p.o. days 0-4, control 222 ± 74, **p < 0.02 vs. control)"
"O=P1(N(CCCl)CCCl)NCCCO1 (centres unmarked) [Cyclophosphamide, cyclophosphamide, reference compound]",33 ± 25,18 ± 12,81 ± 60,135 ± 55,156 ± 120,272 ± 110,neither A-NK cells alone or cyclophosphamide yielded a significant reduction in tumor burden,,,,,,,,,,,,,
"COc1cccc2sc(-c3ccc(C(F)(F)F)cc3)nc12 [Compound B, 4-Methoxy-2-(4-trifluoromethylphenyl) benzothiazole]",,,,,,,Significant reduction in tumor burden,no significant difference,no significant difference,enhanced the reduction,66 ± 39,88 ± 49,88 ± 60,augment the anti-metastatic therapeutic effect,1,,,,,
"COc1cccc2sc(-c3ccc(C(C)(C)C)cc3)nc12 [Compound A, 4-Methoxy-2-(4-t-butylphenyl)benzothiazole]",,,,,,,,,,enhanced the reduction,,,,augment the anti-metastatic therapeutic effect,,38,64,24 ± 19,13 ± 7,58 ± 35
